The supplement of paper PMC10307832

What was measured:
Assay in all cases: relative viability (nuclei count vs DMSO), 5 days (fraction); higher = more cells survive
NCI-H358 = tested on: NCI-H358
Summary of the method: (§1)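 The day after seeding in 1536-well plates, lung cancer cell lines were treated by pin tool with a single drug, or with a fixed anchor-drug dose together with five library-drug doses (not always all listed) in √10 steps. After 5 days, a combined fix-and-stain solution (final 0.05% Triton X-100, 1% formaldehyde, 1 ug/ml Hoechst) was added. Nuclei counted on 4× images gave relative viability as treated counts over vehicle counts, reported as the median of duplicate plates.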

NCI-H650 = tested on: NCI-H650
Summary of the method: as §1

NCI-H2342 = tested on: NCI-H2342
Summary of the method: as §1

PC-3 [JPC-3] = tested on: PC-3 [JPC-3]
Summary of the method: as §1

SK-MES-1 = tested on: SK-MES-1
Summary of the method: as §1

UMC-11 = tested on: UMC-11
Summary of the method: as §1

NCI-H1944 = tested on: NCI-H1944
Summary of the method: as §1

LU99A = tested on: LU99A
Summary of the method: as §1

H3255 = tested on: H3255
Summary of the method: as §1

LK-2 = tested on: LK-2
Summary of the method: as §1

LC-2-ad = tested on: LC-2-ad
Summary of the method: as §1

ChaGo-K-1 = tested on: ChaGo-K-1
Summary of the method: as §1

LCLC-97TM1 = tested on: LCLC-97TM1
Summary of the method: as §1

LXF-289 = tested on: LXF-289
Summary of the method: as §1

NCI-H596 = tested on: NCI-H596
Summary of the method: as §1

BEN = tested on: BEN
Summary of the method: as §1

NCI-H1666 = tested on: NCI-H1666
Summary of the method: as §1

HCC-78 = tested on: HCC-78
Summary of the method: as §1

HCC-15 = tested on: HCC-15
Summary of the method: as §1

NCI-H322M = tested on: NCI-H322M
Summary of the method: as §1

NCI-H838 = tested on: NCI-H838
Summary of the method: as §1

NCI-H2087 = tested on: NCI-H2087
Summary of the method: as §1

NCI-H1651 = tested on: NCI-H1651
Summary of the method: as §1

NCI-H661 = tested on: NCI-H661
Summary of the method: as §1

`Clc1ccc(Nc2nnc(Cc3ccncc3)c3ccccc23)cc1` [Vatalanib] + CC(=O)Nc1cccc(-n2c(=O)n(C3CC3)c(=O)c3c(Nc4ccc(I)cc4F)n(C)c(=O)c(C)c32)c1 [Trametinib] (partner 0.02 µM) gave a relative viability (NCI-H358; first compound 0.04 µM) of 0.156, a relative viability (NCI-H358; first compound 0.1265 µM) of 0.122 and a relative viability (NCI-H358; first compound 0.4 µM) of 0.151. The relative viability (NCI-H358; first compound 1.265 µM) was 0.13, the relative viability (NCI-H358; first compound 4 µM) was 0.138 and the relative viability (NCI-H650; first compound 0.04 µM) was 0.941. It also gave a relative viability (NCI-H650; first compound 0.1265 µM) of 0.796, a relative viability (NCI-H650; first compound 0.4 µM) of 0.997 and a relative viability (NCI-H650; first compound 1.265 µM) of 0.924. For the same molecule, the relative viability (NCI-H650; first compound 4 µM) was 0.904, the relative viability (NCI-H2342; first compound 0.04 µM) was 0.766 and the relative viability (NCI-H2342; first compound 0.1265 µM) was 0.794. The relative viability (NCI-H2342; first compound 0.4 µM) was 0.737, the relative viability (NCI-H2342; first compound 1.265 µM) was 0.747 and the relative viability (NCI-H2342; first compound 4 µM) was 0.804. The relative viability (PC-3 [JPC-3]; first compound 0.04 µM) was 0.78, the relative viability (PC-3 [JPC-3]; first compound 0.1265 µM) was 0.675 and the relative viability (PC-3 [JPC-3]; first compound 0.4 µM) was 0.547. It also gave a relative viability (PC-3 [JPC-3]; first compound 1.265 µM) of 0.619, a relative viability (PC-3 [JPC-3]; first compound 4 µM) of 0.646 and a relative viability (SK-MES-1; first compound 0.04 µM) of 0.507. For the same molecule, the relative viability (SK-MES-1; first compound 0.1265 µM) was 0.503, the relative viability (SK-MES-1; first compound 0.4 µM) was 0.573 and the relative viability (SK-MES-1; first compound 1.265 µM) was 0.548. The relative viability (SK-MES-1; first compound 4 µM) was 0.507, the relative viability (UMC-11; first compound 0.04 µM) was 0.761 and the relative viability (UMC-11; first compound 0.1265 µM) was 0.769. For the same molecule, the relative viability (UMC-11; first compound 0.4 µM) was 0.418, the relative viability (UMC-11; first compound 1.265 µM) was 0.688 and the relative viability (UMC-11; first compound 4 µM) was 0.847. For the same molecule, the relative viability (NCI-H1944; first compound 0.04 µM) was 0.42, the relative viability (NCI-H1944; first compound 0.1265 µM) was 0.373 and the relative viability (NCI-H1944; first compound 0.4 µM) was 0.438. It also gave a relative viability (NCI-H1944; first compound 1.265 µM) of 0.425, a relative viability (NCI-H1944; first compound 4 µM) of 0.386 and a relative viability (LU99A; first compound 0.04 µM) of 0.563. It also gave a relative viability (LU99A; first compound 0.1265 µM) of 0.527, a relative viability (LU99A; first compound 0.4 µM) of 0.647 and a relative viability (LU99A; first compound 1.265 µM) of 0.492. It also gave a relative viability (LU99A; first compound 4 µM) of 0.521, a relative viability (H3255; first compound 0.04 µM) of 0.563 and a relative viability (H3255; first compound 0.1265 µM) of 0.606. The relative viability (H3255; first compound 0.4 µM) was 0.57, the relative viability (H3255; first compound 1.265 µM) was 0.583 and the relative viability (H3255; first compound 4 µM) was 0.58. For the same molecule, the relative viability (LK-2; first compound 0.04 µM) was 0.677, the relative viability (LK-2; first compound 0.1265 µM) was 0.682 and the relative viability (LK-2; first compound 0.4 µM) was 0.774. For the same molecule, the relative viability (LK-2; first compound 1.265 µM) was 0.876, the relative viability (LK-2; first compound 4 µM) was 0.667 and the relative viability (LC-2-ad; first compound 0.04 µM) was 0.97. The relative viability (LC-2-ad; first compound 0.1265 µM) was 0.77, the relative viability (LC-2-ad; first compound 0.4 µM) was 0.965 and the relative viability (LC-2-ad; first compound 1.265 µM) was 0.919. It also gave a relative viability (LC-2-ad; first compound 4 µM) of 0.892, a relative viability (ChaGo-K-1; first compound 0.04 µM) of 0.86 and a relative viability (ChaGo-K-1; first compound 0.1265 µM) of 0.823. For the same molecule, the relative viability (ChaGo-K-1; first compound 0.4 µM) was 0.928, the relative viability (ChaGo-K-1; first compound 1.265 µM) was 0.877 and the relative viability (ChaGo-K-1; first compound 4 µM) was 0.881. The relative viability (LCLC-97TM1; first compound 0.04 µM) was 0.18, the relative viability (LCLC-97TM1; first compound 0.1265 µM) was 0.197 and the relative viability (LCLC-97TM1; first compound 0.4 µM) was 0.198. It also gave a relative viability (LCLC-97TM1; first compound 1.265 µM) of 0.195, a relative viability (LCLC-97TM1; first compound 4 µM) of 0.184 and a relative viability (LXF-289; first compound 0.04 µM) of 0.688. It also gave a relative viability (LXF-289; first compound 0.1265 µM) of 0.647, a relative viability (LXF-289; first compound 0.4 µM) of 0.686 and a relative viability (LXF-289; first compound 1.265 µM) of 0.668. For the same molecule, the relative viability (LXF-289; first compound 4 µM) was 0.626, the relative viability (NCI-H596; first compound 0.04 µM) was 0.782 and the relative viability (NCI-H596; first compound 0.1265 µM) was 0.88. The relative viability (NCI-H596; first compound 0.4 µM) was 0.76, the relative viability (NCI-H596; first compound 1.265 µM) was 0.751 and the relative viability (NCI-H596; first compound 4 µM) was 0.75. The relative viability (BEN; first compound 0.04 µM) was 1.12, the relative viability (BEN; first compound 0.1265 µM) was 1.04 and the relative viability (BEN; first compound 0.4 µM) was 0.976. The relative viability (BEN; first compound 1.265 µM) was 1.12, the relative viability (BEN; first compound 4 µM) was 0.977 and the relative viability (NCI-H1666; first compound 0.04 µM) was 0.83. The relative viability (NCI-H1666; first compound 0.1265 µM) was 0.886, the relative viability (NCI-H1666; first compound 0.4 µM) was 0.88 and the relative viability (NCI-H1666; first compound 1.265 µM) was 0.912. It also gave a relative viability (NCI-H1666; first compound 4 µM) of 0.782, a relative viability (HCC-78; first compound 0.04 µM) of 0.729 and a relative viability (HCC-78; first compound 0.1265 µM) of 0.794. It also gave a relative viability (HCC-78; first compound 0.4 µM) of 0.809, a relative viability (HCC-78; first compound 1.265 µM) of 0.822 and a relative viability (HCC-78; first compound 4 µM) of 0.694. The relative viability (HCC-15; first compound 0.04 µM) was 0.392, the relative viability (HCC-15; first compound 0.1265 µM) was 0.412 and the relative viability (HCC-15; first compound 0.4 µM) was 0.404. For the same molecule, the relative viability (HCC-15; first compound 1.265 µM) was 0.365, the relative viability (HCC-15; first compound 4 µM) was 0.365 and the relative viability (NCI-H322M; first compound 0.04 µM) was 0.416. It also gave a relative viability (NCI-H322M; first compound 0.1265 µM) of 0.51, a relative viability (NCI-H322M; first compound 0.4 µM) of 0.552 and a relative viability (NCI-H322M; first compound 4 µM) of 0.517. The relative viability (NCI-H838; first compound 0.04 µM) was 0.575, the relative viability (NCI-H838; first compound 0.1265 µM) was 0.539 and the relative viability (NCI-H838; first compound 0.4 µM) was 0.657. It also gave a relative viability (NCI-H838; first compound 1.265 µM) of 0.462, a relative viability (NCI-H838; first compound 4 µM) of 0.509 and a relative viability (NCI-H2087; first compound 0.04 µM) of 0.245. The relative viability (NCI-H2087; first compound 0.1265 µM) was 0.197, the relative viability (NCI-H2087; first compound 0.4 µM) was 0.249 and the relative viability (NCI-H2087; first compound 1.265 µM) was 0.194. For the same molecule, the relative viability (NCI-H2087; first compound 4 µM) was 0.179, the relative viability (NCI-H1651; first compound 0.04 µM) was 0.802 and the relative viability (NCI-H1651; first compound 0.1265 µM) was 0.778. The relative viability (NCI-H1651; first compound 0.4 µM) was 0.779, the relative viability (NCI-H1651; first compound 1.265 µM) was 0.742 and the relative viability (NCI-H1651; first compound 4 µM) was 0.809. For the same molecule, the relative viability (NCI-H661; first compound 0.04 µM) was 0.636, the relative viability (NCI-H661; first compound 0.1265 µM) was 0.533 and the relative viability (NCI-H661; first compound 0.4 µM) was 0.689. The relative viability (NCI-H661; first compound 1.265 µM) was 0.59 and the relative viability (NCI-H661; first compound 4 µM) was 0.574.
